The numbers were not newly measured in paper PMC2891520 (The Journal of neuroscience : the official journal of the …, 2010), which cites them from elsewhere.

The data set deals with CaMKII (Homo sapiens, UniProt Q9UQM7). To be noted: ref Vest et al., 2010.

On to `COc1ccc(S(=O)(=O)N(CCO)c2ccccc2CN(C)C/C=C/c2ccc(Cl)cc2)cc1` [KN93], for which the “block of autonomous CaMKII activity once generated” value is listed as “does not block autonomous activity once it is generated”.
